Experimental data from article PMC7598271, “In Vitro Studies to Define the Cell-Surface and Intracellular Targets of Polyarginine-Conjugated Sodium Borocaptate as a Potential Delivery Agent for Boron Neutron Capture Therapy” (Cells, 2020).

What was measured:
U251MG cells = assay: Immunofluorescent analysis of cellular uptake with anti-BSH antibody; assay type: cell-based, human; conditions: U251 glioma cells, 20 µM, immunofluorescent analysis (Figure 1B)
Protocol: Human glioma cell lines U87MG and U251MG, human breast cancer cell lines MCF7 and MDA-MB-231, human pancreatic cancer cell lines CFPAC1 and PANC1, and murine mammary gland cell line NMuMG, were cultured in Dulbecco’s modified Eagle’s medium (DMEM) (FUJIFILM Wako Pure Chemical Corporation, Osaka, Japan) with 10% fetal bovine serum (FBS) (Corning Inc., Corning, NY, USA) and penicillin/streptomycin/L-glutamine (Fujifilm-Wako, Japan) as previously described. U87MG, MDA-MB-231, CFPAC-1, PANC-1, and NMuMG were obtained from the American Type Culture Collection (ATCC, Manassas, VA, USA) (catalogue number: HTB-14, HTB-26, CRL-1918, CRL-1469, and CRL-1636, respectively). U251MG and MCF7 were obtained from the Japanese Collection of Research Bioresources Cell Bank (JCRB, Ibaraki, Japan) (catalogue number: IFO50288 and JCRB0134, respectively).
(§1) The immunostaining of cells was performed as previously described with brief modifications. The cells were fixed with 4% paraformaldehyde (PFA) for 15 min, permeated with 0.05% Triton X-100 for 10 min, and blocked with 5% goat serum. Then, the samples were incubated with primary antibodies for 16 h at 4 °C and secondary antibodies for 1 h at room temperature. Primary antibodies against CD44 were purchased from Abcam (Cambridge, UK) (ab157107). Antibodies against the BSH molecule (clone#: 36-2H or 38-5C) were developed by ITM Co., Ltd. (Nagano, Japan). […]

CD44 protein = assay: Immunoprecipitation with anti-BSH antibody and Western blotting for CD44; assay type: binding, human; conditions: MDA-MB-231 cell lysate 2000 µg/mL, compound 20 µM, 1 h at 4 °C, anti-BSH antibody 10 µg/mL, Western blotting (Figure 3A)
Protocol: (§2) Western blotting was performed as previously described. The cells were lysed in cell lysis buffer (20 mM Tris-HCl (pH =7.5), 150 mM NaCl, 1 mM EDTA, 1 mM Na2EGTA (ethylene glycol-bis(β-aminoethyl ether)-N,N,N′,N′-tetraacetic acid), 0.5% Triton X-100) supplemented with cOmplete Protease Inhibitor Cocktail (Sigma-Aldrich Co. LLC, St. Louis, MO, USA), and PhosSTOP phosphatase inhibitor cocktail (Sigma-Aldrich Co. LLC, St. Louis, MO, USA). After sonication and centrifugation (15,000 rpm, 4 °C, 10 min), the protein concentration of the supernatants was measured using a bicinchoninic acid (BCA) protein assay (Thermo Fisher Scientific, Inc., Waltham, MA, USA). The supernatants were added to 1/3 volume of 4x SDS sample buffer (240 mM Tris-HCl (pH=6.8), 8% sodium dodecyl sulfate (SDS), 40% glycerol, 0.1% bromophenol blue, 20% 2-mercaptoethanol) and boiled at 95 °C for 5 min. Then, the samples were applied to SDS-polyacrylamide gel electrophoresis (PAGE) and transferred to polyvinylidene fluoride (PVDF) membrane (Immobilon-P, 0.45 µm) (MilliporeSigma, Burlington, MA, USA). […] The signals were developed with Clarity Western enhanced chemiluminescence (ECL) Substrate (Bio-Rad Laboratories, Inc., Hercules, CA, USA) and detected with a ChemiDoc imaging system (Bio-Rad Laboratories, Inc., Hercules, CA, USA). […]

[1] = system: NMuMG-GFP, NMuMG-HRas/shp53 and NMuMG-HRas/shp53/YAP1 cells; assay: Immunofluorescent analysis of uptake in transformed NMuMG cells; assay type: cell-based, murine; conditions: BSH 2 mM, NMuMG-HRas/shp53, NMuMG-HRas/shp53/YAP1 (Figure 4C)
Text: For transformation of the NMuMG cells, we prepared virus particles of pTomo-HRas/shRNA-p53 (Vector plasmid was a kind gift from Dr. Dinorah Morvinski, Tel Aviv University), pTomo (Addgene, #26291), FUW-tetO-wtYAP (Addgene, #84009), and FUdeltaGW-rtTA (Addgene, #19780), and infected cells in the same manner as written above. After the infection of pTomo viruses (pTomo-HRas/shRNA-p53 was used for malignant transformation, with pTomo for a negative control), the cells were further treated with adenovirus harboring Cre recombinase (cat#ADV-005) (Cell Biolabs Inc., San Diego, CA, USA), to activate the HRas expression cassette. The transformation was confirmed by the acquisition of the spheroid-forming capacity and morphological change (epithelial to spindle form).
as §1

[2] = target: T1, poly(A)-binding protein 1 (PABP1) (Homo sapiens, UniProt P11940); assay: Immunoprecipitation with anti-BSH antibody from U251 cell lysate, Western blotting
T1 construct: we performed immunoprecipitation from the pre-cleaned lysate of U251 cells; endogenous in cells; host or cells: U251 (U251MG) glioma cells
T1 sequence (P11940 whole entry): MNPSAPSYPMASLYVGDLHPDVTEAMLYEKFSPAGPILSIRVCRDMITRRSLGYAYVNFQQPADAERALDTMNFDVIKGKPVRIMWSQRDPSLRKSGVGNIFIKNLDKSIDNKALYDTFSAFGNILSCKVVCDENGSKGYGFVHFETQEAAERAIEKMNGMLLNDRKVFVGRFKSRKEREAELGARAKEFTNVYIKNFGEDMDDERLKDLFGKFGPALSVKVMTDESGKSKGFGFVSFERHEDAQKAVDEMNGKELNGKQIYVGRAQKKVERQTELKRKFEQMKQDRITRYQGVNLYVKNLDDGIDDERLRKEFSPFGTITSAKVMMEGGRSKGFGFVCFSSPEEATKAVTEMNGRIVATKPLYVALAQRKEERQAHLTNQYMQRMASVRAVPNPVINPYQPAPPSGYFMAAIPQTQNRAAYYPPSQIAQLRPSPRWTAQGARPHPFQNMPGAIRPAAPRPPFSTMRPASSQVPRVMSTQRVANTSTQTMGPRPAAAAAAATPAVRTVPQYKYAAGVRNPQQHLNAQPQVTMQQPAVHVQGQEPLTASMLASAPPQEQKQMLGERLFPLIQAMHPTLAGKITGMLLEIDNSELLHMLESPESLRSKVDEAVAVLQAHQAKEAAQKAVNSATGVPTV
Protocol: (§3) Western blotting was performed as previously described. The cells were lysed in cell lysis buffer (20 mM Tris-HCl (pH =7.5), 150 mM NaCl, 1 mM EDTA, 1 mM Na2EGTA (ethylene glycol-bis(β-aminoethyl ether)-N,N,N′,N′-tetraacetic acid), 0.5% Triton X-100) supplemented with cOmplete Protease Inhibitor Cocktail (Sigma-Aldrich Co. LLC, St. Louis, MO, USA), and PhosSTOP phosphatase inhibitor cocktail (Sigma-Aldrich Co. LLC, St. Louis, MO, USA). After sonication and centrifugation (15,000 rpm, 4 °C, 10 min), the protein concentration of the supernatants was measured using a bicinchoninic acid (BCA) protein assay (Thermo Fisher Scientific, Inc., Waltham, MA, USA). The supernatants were added to 1/3 volume of 4x SDS sample buffer (240 mM Tris-HCl (pH=6.8), 8% sodium dodecyl sulfate (SDS), 40% glycerol, 0.1% bromophenol blue, 20% 2-mercaptoethanol) and boiled at 95 °C for 5 min. Then, the samples were applied to SDS-polyacrylamide gel electrophoresis (PAGE) and transferred to polyvinylidene fluoride (PVDF) membrane (Immobilon-P, 0.45 µm) (MilliporeSigma, Burlington, MA, USA). The membranes were blocked with 0.5% skim milk (nacalai tesque, Kyoto, Japan) in tris-buffered saline with tween20 (TBST, 137 mM NaCl, 2.68 mM KCl, 25 mM Tris (pH=7.4), 0.1% Tween20) and incubated with primary antibodies for 16 h at 4 °C and secondary antibodies for 1 h at room temperature. The signals were developed with Clarity Western enhanced chemiluminescence (ECL) Substrate (Bio-Rad Laboratories, Inc., Hercules, CA, USA) and detected with a ChemiDoc imaging system (Bio-Rad Laboratories, Inc., Hercules, CA, USA).
(§4) Immunoprecipitation was performed as previously described with modification. Briefly, the cells were lysed in cell lysis buffer supplemented with cOmplete Protease Inhibitor Cocktail and PhosSTOP phosphatase inhibitor cocktail. The lysate was passed through a 23G needle syringe 10 times and centrifuged at 15,000 rpm, at 4 °C, for 10 min. […]

eIF4G = target: T2, eIF4G (Homo sapiens, UniProt Q04637); assay: as above; assay type: binding
T2 construct: we performed immunoprecipitation from the pre-cleaned lysate of U251 cells; endogenous in cells; host or cells: U251 (U251MG) glioma cells
T2 sequence (Q04637 whole entry): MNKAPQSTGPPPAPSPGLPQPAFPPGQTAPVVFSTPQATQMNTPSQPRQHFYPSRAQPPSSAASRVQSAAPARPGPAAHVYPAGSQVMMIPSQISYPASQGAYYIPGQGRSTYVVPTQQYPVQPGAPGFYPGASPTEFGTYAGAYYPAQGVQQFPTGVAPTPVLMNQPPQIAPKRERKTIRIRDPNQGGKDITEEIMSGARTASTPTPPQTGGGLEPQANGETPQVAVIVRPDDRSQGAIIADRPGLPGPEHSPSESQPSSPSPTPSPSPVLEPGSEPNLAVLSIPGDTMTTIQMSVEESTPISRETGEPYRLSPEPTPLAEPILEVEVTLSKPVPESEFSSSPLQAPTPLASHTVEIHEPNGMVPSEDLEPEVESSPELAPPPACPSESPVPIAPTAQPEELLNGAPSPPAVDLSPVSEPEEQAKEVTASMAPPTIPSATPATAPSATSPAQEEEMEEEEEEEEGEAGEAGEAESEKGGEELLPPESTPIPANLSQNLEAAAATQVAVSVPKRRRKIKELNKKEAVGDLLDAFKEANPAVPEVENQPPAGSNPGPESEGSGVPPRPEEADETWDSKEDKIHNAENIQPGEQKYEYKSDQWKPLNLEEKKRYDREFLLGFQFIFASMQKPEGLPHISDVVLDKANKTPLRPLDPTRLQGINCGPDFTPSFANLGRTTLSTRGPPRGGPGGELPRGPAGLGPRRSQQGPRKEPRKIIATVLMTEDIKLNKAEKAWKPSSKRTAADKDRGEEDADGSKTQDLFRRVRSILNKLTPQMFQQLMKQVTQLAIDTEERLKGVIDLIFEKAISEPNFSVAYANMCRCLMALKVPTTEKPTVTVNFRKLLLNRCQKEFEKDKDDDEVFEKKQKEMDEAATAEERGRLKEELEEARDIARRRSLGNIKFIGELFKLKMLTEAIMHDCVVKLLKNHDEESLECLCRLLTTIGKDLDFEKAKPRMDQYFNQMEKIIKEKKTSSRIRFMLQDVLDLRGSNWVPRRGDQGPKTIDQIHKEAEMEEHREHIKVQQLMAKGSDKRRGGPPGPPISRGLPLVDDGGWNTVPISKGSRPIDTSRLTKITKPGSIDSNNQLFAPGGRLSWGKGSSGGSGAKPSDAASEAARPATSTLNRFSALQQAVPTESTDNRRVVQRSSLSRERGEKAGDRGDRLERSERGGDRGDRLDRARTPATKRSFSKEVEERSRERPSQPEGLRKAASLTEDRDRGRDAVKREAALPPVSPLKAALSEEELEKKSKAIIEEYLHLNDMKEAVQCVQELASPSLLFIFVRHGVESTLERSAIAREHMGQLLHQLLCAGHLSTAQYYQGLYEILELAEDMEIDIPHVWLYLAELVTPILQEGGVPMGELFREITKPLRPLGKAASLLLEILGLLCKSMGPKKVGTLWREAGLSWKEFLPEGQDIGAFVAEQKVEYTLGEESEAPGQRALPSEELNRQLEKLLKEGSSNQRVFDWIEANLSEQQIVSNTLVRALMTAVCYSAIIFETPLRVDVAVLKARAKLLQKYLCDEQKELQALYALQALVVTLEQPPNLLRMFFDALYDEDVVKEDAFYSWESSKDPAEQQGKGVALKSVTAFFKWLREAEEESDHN
Protocol: as §3, §4

eRF3 = target: T3, eRF3 (Homo sapiens, UniProt P15170); assay: as above; assay type: binding; conditions: lysate with or without 10 µg/mL RNase A, 1 h at room temperature (Figure 6B)
T3 construct: we performed immunoprecipitation from the pre-cleaned lysate of U251 cells; endogenous in cells; host or cells: U251 glioma cell lysate
T3 sequence (P15170 whole entry): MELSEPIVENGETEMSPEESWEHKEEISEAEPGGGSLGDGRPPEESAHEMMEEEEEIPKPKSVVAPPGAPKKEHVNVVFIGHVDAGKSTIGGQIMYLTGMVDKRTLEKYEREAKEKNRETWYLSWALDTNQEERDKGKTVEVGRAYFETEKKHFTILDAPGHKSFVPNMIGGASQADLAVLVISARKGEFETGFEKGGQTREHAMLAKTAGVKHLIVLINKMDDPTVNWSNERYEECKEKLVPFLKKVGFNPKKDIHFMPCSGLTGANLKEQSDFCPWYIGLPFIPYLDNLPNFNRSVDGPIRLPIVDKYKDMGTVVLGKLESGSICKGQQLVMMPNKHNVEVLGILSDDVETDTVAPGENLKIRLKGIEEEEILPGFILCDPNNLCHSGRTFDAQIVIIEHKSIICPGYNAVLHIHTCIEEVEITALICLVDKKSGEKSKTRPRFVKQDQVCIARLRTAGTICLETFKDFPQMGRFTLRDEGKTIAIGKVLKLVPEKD
Protocol: as §3, §4

eIF4A = target: T4, eIF4A (Homo sapiens, UniProt P60842); assay: as above; assay type: binding; conditions: lysate with or without 10 µg/mL RNase A, 1 h at room temperature (Figure 6B)
T4 construct: we performed immunoprecipitation from the pre-cleaned lysate of U251 cells; endogenous in cells; host or cells: U251 glioma cell lysate
T4 sequence (P60842 whole entry): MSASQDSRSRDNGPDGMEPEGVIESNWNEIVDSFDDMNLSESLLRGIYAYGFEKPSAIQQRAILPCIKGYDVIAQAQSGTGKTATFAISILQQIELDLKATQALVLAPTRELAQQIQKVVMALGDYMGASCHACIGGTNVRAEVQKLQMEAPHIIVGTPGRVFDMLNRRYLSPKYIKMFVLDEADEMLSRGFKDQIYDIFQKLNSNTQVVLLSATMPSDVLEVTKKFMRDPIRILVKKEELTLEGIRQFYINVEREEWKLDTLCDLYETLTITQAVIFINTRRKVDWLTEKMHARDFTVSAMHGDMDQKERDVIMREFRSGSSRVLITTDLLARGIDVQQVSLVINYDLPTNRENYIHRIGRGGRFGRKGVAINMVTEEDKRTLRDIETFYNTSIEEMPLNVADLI
Protocol: as §2

[3] = immunoprecipitation with 20 µM of BSH, BSH-3R, BSH-11R (Figure 7A)
[4] = lysate with or without 10 µg/mL RNase A, 1 h at room temperature (Figure 6B)

passage through the plasma membrane (U251MG cells): could not | PABP1 binding, dependence on arginine length [2, 3]: bound to BSH in an RNA-dependent manner | RNA dependence of binding to PABP1 [2, 4]: bound to PABP1 in the presence of RNA | eIF4G binding, dependence on arginine length (eIF4G; [3]): did not observe a significant difference | binding to eRF3 (eRF3): did not bind to BSH
Substance: mercaptoundecahydrododecaborate [BSH]
co-precipitation of CD44 protein with anti-BSH antibody (CD44 protein): failed to precipitate CD44 | BSH immunofluorescent signal in cells [1]: did not show any signals in all types of cells | binding to PABP1 (immunoprecipitation) ([2]; pre-cleaned U251 lysate, 20 µM (Figure 6A)): had a binding capacity with poly(A)-binding protein 1 (PABP1) | RNA dependence of binding to eIF4G (eIF4G; [4]): little eIF4G was pulled-down with BSH in the presence of RNA | RNA dependence of binding to eIF4A (eIF4A): did not bind to BSH in the presence or absence of RNA
